The source of these data is US20100204203A1, “Chemical Compounds 637: Pyridopyrimidinediones as PDE4 Inhibitors” (priority 2007, published 2010).

T1 sequence (Q07343 1-564 isoform Q07343-2): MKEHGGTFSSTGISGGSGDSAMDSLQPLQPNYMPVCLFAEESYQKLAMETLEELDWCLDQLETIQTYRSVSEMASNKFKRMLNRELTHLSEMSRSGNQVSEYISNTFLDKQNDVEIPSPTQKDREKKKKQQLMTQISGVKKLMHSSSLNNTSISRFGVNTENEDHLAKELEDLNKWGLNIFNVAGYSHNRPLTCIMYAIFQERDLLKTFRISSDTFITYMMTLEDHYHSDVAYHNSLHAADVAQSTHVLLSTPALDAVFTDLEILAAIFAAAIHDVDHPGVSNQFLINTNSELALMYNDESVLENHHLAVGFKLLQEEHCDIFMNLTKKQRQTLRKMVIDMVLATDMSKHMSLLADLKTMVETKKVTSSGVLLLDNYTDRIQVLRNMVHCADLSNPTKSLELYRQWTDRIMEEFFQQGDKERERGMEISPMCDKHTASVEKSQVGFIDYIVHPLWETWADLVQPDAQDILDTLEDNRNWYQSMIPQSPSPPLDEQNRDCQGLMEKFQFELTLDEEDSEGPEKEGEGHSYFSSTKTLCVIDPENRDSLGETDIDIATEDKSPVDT

One assay has as its target T1, recombinant Human Phosphodiesterase B2 (PDE4B2) (Homo sapiens, UniProt Q07343). Nature of the assay: Human Phosphodiesterase B2 Alpha Screen Assay. The class given is biochemical. Conditions: Alpha Screen cAMP kit; 15 min preincubation, 60 min reaction at room temperature; Xlfit model 205; read-out: PDE4B2 pIC50 (converted). The method, then: Human Phosphodiesterase B2 Alpha Screen Assay
The assay uses recombinant Human Phosphodiesterase B2 (PDE4B2) produced in house (PrAZL0133), stored at −20° C. The substrate uses cAMP, part of the Alpha Screen cAMP kit (Perkin Elmer, Cat# 6760625M), stored at 4° C. The Alpha Screen kit also includes biotinylated cAMP, acceptor and donor beads.
The assay additions were as follows: Test compounds and controls were added to white 384-well flat-bottom plates (Greiner, Cat#781075), 0.2 μl in 100% DMSO, followed by 10 μl PDE4B2 in reaction buffer. The reaction buffer constitution was: 50 mM Tris (pH 7.5), 8.3 mM MgCl2, 1.7 mM EGTA and 0.01% (w/v) Brij®35. The enzyme and the compounds were incubated at room temperature for 15 minutes. Then 10 μl cAMP in reaction buffer was added. The assay was stopped after 60 minutes incubation at room temperature by adding 10 μl acceptor beads in detection buffer with 40 mM EDTA. The detection buffer constitution was: 5 mM Tris (pH 7.5), 0.1% (w/v) BSA and 0.1% (v/v) Tween 20. This addition followed by an addition of 10 μl donor beads in detection buffer, with biotinylated cAMP. The plates were then incubated, dark at room temperature, for 5 hours followed by measurement on a Fusion™-α analyser. pIC50 values (presented in Table 14) were determined using Xlfit curve fitting using model 205.
`O=C(N[C@H]1CC[C@@H](n2c(=O)c3cc(F)cnc3n(C3CCCC3)c2=O)CC1)c1cn2ccccc2n1` [Example 7, N-[cis-4-(1-cyclopentyl-6-fluoro-2,4-dioxo-1,4-dihydropyrido[2,3-d]pyrimidin-3(2H)-yl)cyclohexyl]imidazo[1,2-a]pyridine-2-carboxamide]: the IC50 is 0.631 nM. As to `O=C(N[C@H]1CC[C@@H](n2c(=O)c3cc(F)cnc3n(Cc3ccc(F)cc3)c2=O)CC1)c1cn2ccccc2n1` [Example 9, N-{cis-4-[6-fluoro-1-(4-fluorobenzyl)-2,4-dioxo-1,4-dihydropyrido[2,3-d]pyrimidin-3(2H)-yl]cyclohexyl}imidazo[1,2-a]pyridine-2-carboxamide], the IC50 was 3.16 nM.

The target of another assay is T1, recombinant Human Phosphodiesterase B2 (PDE4B2). Nature of the assay: Human Phosphodiesterase B2 Radiometric Assay (yttrium silicate SPA beads, [3H]cyclic AMP). The conditions noted are these: recombinant human PDE4B2, radiometric SPA assay, 8 nM [3H]cyclic AMP; read-out: PDE4B2 pIC50 (converted). Type of assay: biochemical. The method in brief: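 Compounds were preincubated 30 min at 30 °C with 0.1 mg/mL PDE4B2 in 50 mM HEPES pH 7.5, 8.3 mM MgCl2, 1.7 mM EGTA, 0.01% Brij 35. Then 8 nM [3H]cAMP was added for 20 min, stopped with yttrium silicate SPA beads plus 18 mM ZnSO4 capturing product 5′AMP; pIC50 by curve fitting.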
`O=C(N[C@H]1CC[C@@H](n2c(=O)c3cc(F)cnc3n(-c3cccc(-c4ccc(OCCO)cc4)c3)c2=O)CC1)c1cn2cc(F)ccc2n1` [Example 58, 6-fluoro-N-{cis-4-[6-fluoro-1-[4′-(2-hydroxyethoxy)biphenyl-3-yl]-2,4-dioxo-1,4-dihydropyrido[2,3-d]pyrimidin-3(2H)-yl]cyclohexyl}imidazo[1,2-a]pyridine-2-carboxamide]: the IC50 was 0.0158 nM. The same measure, in the same setting: the figure for `O=C(N[C@H]1CC[C@@H](n2c(=O)c3cc(F)cnc3n(-c3cccc(-c4cccc(CN5CCCCC5)c4)c3)c2=O)CC1)c1cn2cc(F)ccc2n1` [Example 14, 6-fluoro-N-{cis-4-[6-fluoro-2,4-dioxo-1-[3′-(piperidin-1-ylmethyl)biphenyl-3-yl]-1,4-dihydropyrido[2,3-d]pyrimidin-3(2H)-yl]cyclohexyl}imidazo[1,2-a]pyridine-2-carboxamide.] is 0.2 nM; for `O=c1c2cc(F)cnc2n(-c2cccc(-c3ccc(CN4CCOCC4)cc3)c2)c(=O)n1[C@H]1CC[C@@H](NCc2cn3cc(F)ccc3n2)CC1` [Example 76, 6-fluoro-3-(cis-4-{[(6-fluoroimidazo[1,2-a]pyridin-2-yl)methyl]amino}cyclohexyl)-1-[4′-(morpholin-4-ylmethyl)biphenyl-3-yl]pyrido[2,3-d]pyrimidine-2,4(1H,3H)-dione ditrifluoroacetic acid] it is 0.316 nM. Still for that read-out and setting: the figure for `C[C@@H]1CN(Cc2ccc(-c3cccc(-n4c(=O)n([C@H]5CC[C@@H](NC(=O)c6ccc7ccccc7n6)CC5)c(=O)c5cc(F)cnc54)c3)cc2)C[C@H](C)N1` [Example 300, N-{cis-4-[1-(4′-{[(3R,5S)-3,5-dimethylpiperazin-1-yl]methyl}biphenyl-3-yl)-6-fluoro-2,4-dioxo-1,4-dihydropyrido[2,3-d]pyrimidin-3(2H)-yl]cyclohexyl} quinoline-2-carboxamide] is 0.0316 nM; for `CN(C)Cc1ccccc1-c1cccc(-n2c(=O)n([C@H]3CC[C@@H](NC(=O)c4cn5cc(F)ccc5n4)CC3)c(=O)c3cc(F)cnc32)c1` [Example 33, N-{cis-4-[1-{2′-[(dimethylamino)methyl]biphenyl-3-yl}-6-fluoro-2,4-dioxo-1,4-dihydropyrido[2,3-d]pyrimidin-3(2H)-yl]cyclohexyl}-6-fluoroimidazo[1,2-c]pyridine-2-carboxamide.] it is 0.01 nM; for `O=C(Nc1ccccc1)c1cccc(-n2c(=O)n([C@H]3CC[C@@H](NC(=O)c4cn5ccccc5n4)CC3)c(=O)c3cc(F)cnc32)c1` [Example 4, N-{cis-4-[1-[3-(anilinocarbonyl)phenyl]-6-fluoro-2,4-dioxo-1,4-dihydropyrido[2,3-d]pyrimidin-3(2H)-yl]cyclohexyl}imidazo[1,2-c]pyridine-2-carboxamide] it is 0.0398 nM. The same measure, in the same setting: the figure for `CN1CCCN(Cc2ccc(-c3cccc(-n4c(=O)n([C@H]5CC[C@@H](NC(=O)CN6CCCCC6)CC5)c(=O)c5cc(F)cnc54)c3)cc2)CC1` [Example 292, N-{cis-4-[6-fluoro-1-{4′-[(4-methyl-1,4-diazepan-1-yl)methyl]biphenyl-3-yl}-2,4-dioxo-1,4-dihydropyrido[2,3-d]pyrimidin-3(2H)-yl]cyclohexyl}-2-piperidin-1-ylacetamide] is 0.0316 nM; for `O=C(N[C@H]1CC[C@@H](n2c(=O)c3cc(F)cnc3n(-c3cccc(Cc4ccccc4)c3)c2=O)CC1)c1cn2ccccc2n1` [Example 34, N-{cis-4-[1-(3-benzylphenyl)-6-fluoro-2,4-dioxo-1,4-dihydropyrido[2,3-c]pyrimidin-3(2H)-yl]cyclohexyl}imidazo[1,2-a]pyridine-2-carboxamide] it is 0.126 nM. Turning to `Cc1cc(C(=O)N[C@H]2CC[C@@H](n3c(=O)c4cc(F)cnc4n(-c4cccc(-c5ccc(O)cc5CN(C)C)c4)c3=O)CC2)nn1C` [Example 348, N-{cis-4-[1-{2′-[(dimethylamino)methyl]-4′-hydroxybiphenyl-3-yl}-6-fluoro-2,4-dioxo-1,4-dihydropyrido[2,3-d]pyrimidin-3(2H)-yl]cyclohexyl}-1,5-dimethyl-1H-pyrazole-3-carboxamide], the IC50 is 0.0251 nM.

With `Cc1oncc1C(=O)N[C@H]1CC[C@@H](n2c(=O)c3cc(F)cnc3n(-c3cccc(-c4ccc(CN5CCN(C(C)C)CC5)cc4)c3)c2=O)CC1` [Example 240, N-{cis-4-[6-fluoro-1-{4′-[(4-isopropylpiperazin-1-yl)methyl]biphenyl-3-yl}-2,4-dioxo-1,4-di-hydropyrido[2,3-d]pyrimidin-3(2H)-yl]cyclohexyl}-5-methyl-isoxazole-4-carboxamide], the IC50 is 0.501 nM.

Regarding `CC(C)NCCCc1ccc(-c2cccc(-n3c(=O)n([C@H]4CC[C@@H](NC(=O)c5cn6cc(F)ccc6n5)CC4)c(=O)c4cc(F)cnc43)c2)cc1` [Example 95, 6-fluoro-N-{cis-4-[6-fluoro-1-{4′-[3-(isopropylamino)propyl]biphenyl-3-yl]-2,4-dioxo-1,4-dihydropyrido[2,3-d]pyrimidin-3(2H)-yl]cyclohexyl}imidazo[1,2-a]pyridine-2-carboxamide], the IC50 was 0.02 nM. On the same count and under the same terms, next, `C[C@@H](CO)N(C)Cc1cc(O)ccc1-c1cccc(-n2c(=O)n([C@H]3CC[C@@H](NCc4cn5cc(F)ccc5n4)CC3)c(=O)c3cc(F)cnc32)c1` [Example 324, 6-fluoro-3-(cis-4-{[(6-fluoroimidazo[1,2-a]pyridin-2-yl)methyl]amino}cyclohexyl)-1-(4′-hydroxy-2′-{[[(1S)-2-hydroxy-1-methylethyl](methyl)amino]methyl}biphenyl-3-yl)pyrido[2,3-d]pyrimidine-2,4(1H,3H)-dione]: 0.501 nM.
